We go through 1 compound from publication doi:10.1101/2024.02.23.581731v1 (biorxiv, 2024).

Each structure is given as a SMILES string. Residue numbers refer to the chain shown, from its start.

Assay [1] has as its target T1, h5-HT3AR (Homo sapiens, UniProt P46098).
T1 sequence (P46098 24-478): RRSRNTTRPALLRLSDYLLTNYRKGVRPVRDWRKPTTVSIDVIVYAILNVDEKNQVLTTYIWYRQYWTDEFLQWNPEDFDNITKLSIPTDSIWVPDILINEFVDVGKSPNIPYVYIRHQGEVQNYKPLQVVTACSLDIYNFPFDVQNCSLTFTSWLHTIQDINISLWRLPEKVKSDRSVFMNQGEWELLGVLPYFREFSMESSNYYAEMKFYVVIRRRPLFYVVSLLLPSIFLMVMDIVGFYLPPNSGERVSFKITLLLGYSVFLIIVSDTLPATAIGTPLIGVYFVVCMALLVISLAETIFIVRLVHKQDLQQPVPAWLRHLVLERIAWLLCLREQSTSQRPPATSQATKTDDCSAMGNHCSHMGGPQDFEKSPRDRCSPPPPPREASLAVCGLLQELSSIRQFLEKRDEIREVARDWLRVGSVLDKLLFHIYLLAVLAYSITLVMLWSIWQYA
Briefly: [3H]-GR65630 displacement, HEK-293 membranes. Type of assay: binding.

For another assay, the target named is T2, gp5-HT3AR (Cavia porcellus, UniProt O70212).
T2 sequence (O70212 20-490): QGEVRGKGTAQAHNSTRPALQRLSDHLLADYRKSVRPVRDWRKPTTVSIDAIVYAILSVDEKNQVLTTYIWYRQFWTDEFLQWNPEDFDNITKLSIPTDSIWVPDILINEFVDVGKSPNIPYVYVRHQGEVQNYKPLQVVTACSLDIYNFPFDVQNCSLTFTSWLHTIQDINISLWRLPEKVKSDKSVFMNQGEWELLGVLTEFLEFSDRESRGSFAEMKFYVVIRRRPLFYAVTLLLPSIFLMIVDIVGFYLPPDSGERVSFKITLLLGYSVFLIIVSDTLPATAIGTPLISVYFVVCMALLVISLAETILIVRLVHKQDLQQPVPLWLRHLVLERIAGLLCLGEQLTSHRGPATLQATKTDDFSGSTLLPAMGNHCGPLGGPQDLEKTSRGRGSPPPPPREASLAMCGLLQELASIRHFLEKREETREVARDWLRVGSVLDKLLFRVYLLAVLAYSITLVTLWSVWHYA
Briefly: FLIPR Blue membrane potential assay, inhibition of 5-HT response. It is filed as cell-based.

For assay [2], the target named is T1, h5-HT3AR. Described as above. Type of assay: cell-based.
Assay [3] addresses T1, h5-HT3AR. Kind of assay: TEVC, Xenopus oocytes, activation. It is filed as cell-based.
The target of the next assay is T3, r5-HT3AR (Rattus norvegicus, UniProt P35563, I207V).
T3 sequence (P35563 24-483 I207V): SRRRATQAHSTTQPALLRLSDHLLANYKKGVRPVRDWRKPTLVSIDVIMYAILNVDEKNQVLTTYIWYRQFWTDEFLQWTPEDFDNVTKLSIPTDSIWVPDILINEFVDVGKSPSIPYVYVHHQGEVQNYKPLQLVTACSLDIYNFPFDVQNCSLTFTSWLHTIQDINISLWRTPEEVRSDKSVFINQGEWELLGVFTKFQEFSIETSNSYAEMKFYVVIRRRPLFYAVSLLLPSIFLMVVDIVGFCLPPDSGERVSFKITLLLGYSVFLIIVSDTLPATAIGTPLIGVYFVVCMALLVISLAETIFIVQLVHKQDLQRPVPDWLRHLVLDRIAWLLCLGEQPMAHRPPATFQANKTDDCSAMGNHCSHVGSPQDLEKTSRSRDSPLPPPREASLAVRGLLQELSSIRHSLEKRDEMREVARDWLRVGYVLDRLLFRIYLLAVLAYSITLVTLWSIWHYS
Briefly: FLIPR Blue membrane potential assay, inhibition of 5-HT response. Type of assay: cell-based.

Assay [4] deals with T4, h5-HT3AR (Homo sapiens, UniProt P46098, S225T).
T4 sequence (P46098 24-478 S225T): T1 sequence (P46098 24-478) with S202T
The description is as above. It is filed as cell-based.

For assay [5], the target named is T5, h5-HT3AR (Homo sapiens, UniProt P46098, M223I).
T5 sequence (P46098 24-478 M223I): T1 sequence (P46098 24-478) with M200I
Described as above. It is filed as cell-based.

Regarding `Cc1ccc(Sc2ccccc2N2CCNCC2)c(C)c1` [vortioxetine], at h5-HT3AR [1], the Ki (commonly a measure of affinity in units of concentration, obtained from inhibition or displacement) worked out at 24 nM. In addition, the IC50 – broadly, the concentration needed to halve the response being measured – against gp5-HT3AR was determined as 2350 nM; at h5-HT3AR [2], 20 nM; on r5-HT3AR it was 10 nM; against h5-HT3AR [4] it was 58 nM; against h5-HT3AR [5], 20 nM. At h5-HT3AR [3], the half-maximal effective concentration (EC50) (as a rule, the midpoint of the concentration-response curve) was found to be 150 nM.
